Residues, ends and D or L forms follow the SMILES beside them. *: point of attachment. Cbz = O=C(OCc1ccccc1)*; CH2F = FC*
What was measured:
human PBMC = assay: Cytokine ELISA in LPS-primed, C1Q-activated human PBMC with inhibitors; type: cell-based; conditions: PBMC primed with LPS overnight, 5 μg/ml C1Q 6 h, inhibitor added 1 h before C1Q
Procedure: (§1) FIG. 3: Complement factor C1Q, a component of Drusen, activates the NLRP3 inflammasome: (a) Production of IL-1β (left panel) and TNFα (right panel) in BMDMs primed with CEP for 3 h and activated for 6 h with C1q at increasing doses. (b) Western blot of caspase-1 cleavage products in THP1 cells primed with LPS and treated with increasing doses of C1Q. (c) Live cell imaging of immortalised BL6 BMDMs stably expressing YFP-ASC. Cells were primed for 3 hrs with either LPS (top panel) or CEP-HSA followed by treatment with 10 μg C1Q (right panel) for a further 2 hrs. Oligomerisation of ASC-YFP was observed by speck formation, original magnification ×60. (d) IL-1β (left panel) and TNF-α (right panel) production in WT and Nlrp3^-/- BMDCs primed with LPS (3 h) and activated with C1Q (16 h) at increasing doses (2.5, 5 and 10 μg C1Q). (e) IL-1β, IL-18 and IL-6 production in human PBMC primed with […] LPS overnight and activated with 5 μg ml C1Q for 6 h, with the addition, 1 h before C1Q treatment of increasing doses (10 fold) of ZVAD (caspase-1 inhibitor). All ELISA data are representative of a minimum of 3 separate experiments carried out in triplicate.
FIG. 13: IL-1β, IL-18 and IL-6 production in human PBMC primed with 100 ng/ml LPS overnight and activated with 5 μg/ml C1Q for 6 h, with the addition, 1 h before C1Q treatment of increasing doses (10 fold) of (a) DPI (ROS inhibitor), (b) Bafilomycin (inhibits lysosomal acidification), (c) CA-074 Me (cathepsin B inhibitor).
(§2) ELISA's were used to quantify cytokines in supernatants from the various experimental groups used throughout this study. IL-1β (RnD Systems), IL-18 (MBL International), IL-6 (RnD Systems), TNF-α (RnD Systems) and VEGF (RnD Systems) were analyzed throughout. All ELISA's were conducted a minimum of 3 times in triplicate. Inhibitors used during this study were added at the following highest concentrations 1 h prior to inflammasome activation: 1 μg/ml of caspase-1 inhibitor VI (Calbiochem), 5 μM cytochalasin D (Sigma Aldrich, Ireland), 10 μM CA-074 Me (cathepsin B inhibitor) (Sigma Aldrich, Ireland), 10 μM DPI (Sigma Aldrich, Ireland).
(§3) ARPE-19 cell line (ATCC CRL 2302) were obtained from LGC promochem, THP1 cells and primary isolated human peripheral blood mononuclear […] (PBMCs) were used for in vitro inflammasome activation assays. Cells were cultured at 37° C., 5% CO2, 95% air in a 1:1 mixture of Dulbecco's modified Eagle's medium (DMEM) and Ham's F12 medium with 1.2 g/L sodium bicarbonate, 2.5 mM L-glutamine, 15 mM HEPES, 0.5 mM sodium pyruvate (Sigma Aldrich) with 10% foetal calf serum (FCS). BMDCs and BMDMs were also isolated from WT, NLRP3-/-, TLR-2-/-, C3H/HeN and C3H/HeJ mice on a congenic C57/B16 background. BMDCs and BMDMs were stained with anti-CD11c-APC and anti-CD11b-PeCy7. Cells were gated on live single cells and expression of CD11c and CD11b was assesed by flow cytometry (FIG. 19). Mouse bEnd.3 microvascular endothelial cells were grown on fibronectin (Sigma Aldrich Ireland) coated tissue culture flasks in DMEM containing Glutamax and 10% FCS.

BMDCs = assay: Cytokine ELISA in WT and Nlrp3-/- BMDCs primed with LPS and activated with C1Q; type: cell-based, mouse; conditions: for production of IL-1β: LPS 3 h, C1Q 16 h
Procedure: as §1, §2
(§4) ARPE-19 cell line (ATCC CRL 2302) were obtained from LGC promochem, THP1 cells and primary isolated human peripheral blood mononuclear […] (PBMCs) were used for in vitro inflammasome activation assays. […]

BMDMs expressing YFP-ASC = assay: ASC speck formation in immortalised BMDMs expressing YFP-ASC; type: cell-based, mouse; conditions: primed BMDMs, live cell imaging
Excerpt: Live cell imaging of speck formation was undertaken using a temperature and CO2 regulated confocal laser scanning microscopy (Olympus FluoView TM FV1000).

[1] = Zeta potential measurement of C1Q in solution; type: physicochemical
THP1 cells = assay: Western blot of caspase-1 cleavage products in THP1 cells; type: cell-based, human; conditions: THP1 cell lysates
Procedure: Generally, antibodies specific for caspase-1 (Santa-Cruz Biotech), beta-actin (Abcam), NLRP3 (Sigma Aldrich, Ireland), TLR-4 (Santa-Cruz Biotech) were incubated on membranes overnight at 4° C. Membranes were washed with TBS, and incubated with a secondary antibody against rabbit (IgG) with Horse-Radish-Peroxidase (HRP) conjugates (1:2500) (Sigma-Aldrich, Ireland), or mouse (IgG) (1:1000), (Sigma-Aldrich, Ireland), for 3 hours at room temperature. Immune complexes were detected using enhanced chemiluminescence (ECL). All Western blots were repeated a minimum of 3 times.
as §3, with “Mouse bEnd.3 microvascular endothelial cells were grown on fibronectin (Sigma Aldrich Ireland) coated tissue culture flasks in DMEM containing Glutamax and 10% FCS.” left out

BMDMs = assay: Cytokine ELISA in BMDMs activated with C1Q; type: cell-based, mouse
Procedure: as §1, §2, §4

ARPE-19 cells = assay: VEGF ELISA in ARPE-19 cells treated with recombinant IL-18; type: cell-based; conditions: increasing doses of IL-18, 24 hrs, growth medium
Procedure: as §2
(§5) ARPE-19 cell line (ATCC CRL 2302) were obtained from LGC promochem, THP1 cells and primary isolated human peripheral blood mononuclear […] (PBMCs) were used for in vitro inflammasome activation assays. Cells were cultured at 37° C., 5% CO2, 95% air in a 1:1 mixture of Dulbecco's modified Eagle's medium (DMEM) and Ham's F12 medium with 1.2 g/L sodium bicarbonate, 2.5 mM L-glutamine, 15 mM HEPES, 0.5 mM sodium pyruvate (Sigma Aldrich) with 10% foetal calf serum (FCS). […]
(§6) We reasoned that IL-18 might confer its protection via the regulation of VEGF synthesis. To test this hypothesis we treated ARPE19 cells and a mouse brain microvascular endothelial cell line (bEnd.3) with recombinant IL-18 and subsequently analysed VEGF levels in the growth medium. […]

[2] = system: intraocular neovascularization in C57BL/6 mice; conditions: administered to C57BL/6 mice during development of oxygen induced retinopathy; cited from earlier work
[3] = system: mouse brain microvascular endothelial cell line (bEnd.3); assay: VEGF ELISA in bEnd.3 cells treated with recombinant IL-18; type: cell-based; conditions: increasing doses of IL-18, 24 hrs, growth medium
Procedure: as §2, §5, §6

wet AMD = conditions: human, in vivo; cited from earlier work

For `c1ccc2c(c1)[I+]c1ccccc1-2` [DPI], the “C1Q induced IL-1β production” value (human PBMC) was “no effect”.

For `CC(NC(=O)C(NC(=O)OCc1ccccc1)C(C)C)C(=O)NC(CC(=O)O)C(=O)CF` (stereo not drawn) [ZVAD] (Cbz-Val-Ala-Asp-CH2F; configuration not given here), the “C1Q induced IL-1β production” value (human PBMC) was “decreased” and the “C1Q induced IL-18 production” value (human PBMC) was “decreased”.

With `CO/C1=C\C(C)=C\[C@@H](C)[C@@H](O)[C@@H](C)C/C(C)=C/C=C/[C@H](OC)[C@@H]([C@@H](C)[C@@H](O)[C@H](C)[C@@]2(O)C[C@@H](O)[C@H](C)[C@@H](C(C)C)O2)OC1=O` [bafilomycin A] the “C1Q induced IL-1β production” value (human PBMC) was “restricted”, the “C1Q induced IL-18 production” value (human PBMC) was “restricted” and the IL-6 production (human PBMC) was “no effect”.

With “C1Q: complement factor, primary initiating component of the classical complement pathway; drusen component, isolated from human blood” the “production of IL-1β” value (BMDCs; Nlrp3-/- cells) was “failed to produce IL-1β”, the “production of IL-1β” value (BMDCs; WT BMDCs) was “did produce a significant level of IL-1β” and the “levels of TNFα” value (BMDCs; WT and Nlrp3-/- BMDCs, LPS primed, C1Q) was “remained unchanged”. For the same compound, the “ASC oligomerisation (YFP-ASC speck formation)” value (BMDMs expressing YFP-ASC) was “could cause ASC oligomerisation”, the “zeta average (zeta potential)” value [1] was 11.8 mV and the “cleaved caspase-1 p10” value (THP1 cells) was “observed cleaved caspase-1 p10”. The “production of IL-1β” value (BMDMs; BMDMs primed with CEP-HSA 3 h, C1Q 6 h) was “produced significant levels of IL-1β”, the “secretion of TNFα” value (BMDMs; BMDMs primed with CEP-HSA, C1Q added) was “remained unchanged” and the “production of IL-1β” value (BMDMs; C1Q alone, unprimed BMDMs) was “did not cause the production of IL-1β”.

In the case of “IL-18: 18KDa mature IL-18; protein sequence NCBI Accession no. NP—001553.1; also covers recombinant IL-18”, the “levels of VEGF secreted” value (ARPE-19 cells) is listed as “significantly decreased”, the neovascularization [2] is listed as “no inhibition of neovascularization” and the “levels of VEGF secreted” value [3] is listed as “significantly decreased”.

For “Infliximab: marketed drug tested in clinical trials in wet AMD”, the “subjects in whom symptoms were greatly exacerbated” value (wet AMD) is given as “more than 50%”.

In the case of `CCCNC(=O)[C@H]1O[C@@H]1C(=O)N[C@H](C(=O)N1CCC[C@H]1C(=O)OC)[C@@H](C)CC` [CA-074 Me], the “C1Q induced IL-1β production” value (human PBMC) is reported as “restricted”, the “C1Q induced IL-18 production” value (human PBMC) is reported as “restricted” and the IL-6 production (human PBMC) is reported as “no effect”.

Source: patent US20140234252A1, “Composition and Methods for the Treatment of Degenerative Retinal Conditions” (The Provost, Fellows, Foundation Scholars, and the other …, priority 2011, published 2014)
